DBAASP
In brackets after ≈: the same amount, converted by molar mass. Several values for one entry are separate records, joined by “and”; a condition that tells them apart may be missing. Identical values can stand only once. Each block holds one compound with its values, some of them ahead of it.

Experiments:
Assay in all cases: ≥ marks a high value that may be exact or a test limit, other limits are often not marked, values filed in µg/mL are converted to µM
[1] = test system: Staphylococcus capitis 1
[2] = test system: Acinetobacter baumannii ATCC BAA-747
[3] = test system: Pseudomonas aeruginosa ATCC BAA-427
[4] = test system: Schizosaccharomyces pombe
[5] = test system: Staphylococcus aureus ATCC 700698
[6] = test system: Staphylococcus aureus ATCC 43300
[7] = test system: Staphylococcus aureus ATCC BAA-44
[8] = test system: Pseudomonas aeruginosa
[9] = test system: Pseudomonas aeruginosa ATCC 15692
[10] = test system: Enterococcus faecalis ATCC 29212
[11] = test system: Staphylococcus aureus ATCC 700699
[12] = test system: Aeromonas hydrophila Rt-6
[13] = test system: Escherichia coli D21
[14] = test system: Enterococcus faecium ATCC 700221
[15] = test system: Staphylococcus epidermidis ATCC 12228
[16] = test system: Klebsiella pneumoniae ATCC 27736
[17] = test system: Bacillus subtilis ATCC 6633
[18] = test system: Escherichia coli ATCC 9637
[19] = test system: Staphylococcus aureus ATCC 29213
[20] = test system: Saccharomyces cerevisiae
[21] = test system: Pseudomonas aeruginosa ATCC 27853
[22] = test system: Staphylococcus aureus Cowan 1
[23] = test system: Streptococcus pyogenes ATCC 21547
[24] = test system: Bacillus megaterium Bm11
[25] = test system: Cryptococcus neoformans
[26] = test system: Acinetobacter baumannii ATCC 19606
[27] = test system: Klebsiella pneumoniae ATCC 700603
[28] = test system: Yersinia pseudotuberculosis YPIII
[29] = test system: Staphylococcus aureus ATCC 33592
[30] = test system: Candida albicans ATCC 10231
[31] = test system: Acinetobacter junii RT-4
[32] = test system: Candida parapsilosis ATCC 22019
[33] = test system: Pseudomonas aeruginosa ATCC 27583
[34] = test system: Pseudomonas syringae pv. tabaci 1918NCPPB
[35] = test system: Enterobacter cloacae St. L P23
[36] = test system: Enterobacter asburiae St. L P23
[37] = test system: Enterobacter cloacae BB2012-181
[38] = test system: Klebsiella pneumoniae BB2009-209
[39] = test system: Pseudomonas aeruginosa BB2013-100
[40] = test system: Escherichia coli JW55034
[41] = test system: Enterobacter cloacae BB2013-32
[42] = test system: Klebsiella aerogenes St. L P63
[43] = test system: Escherichia coli ATCC 25922
[44] = test system: Pseudomonas aeruginosa J4228
[45] = test system: Acinetobacter baumannii Josh 28
[46] = test system: Escherichia coli BW25113
[47] = test system: Escherichia coli ARLG-1012
[48] = test system: Acinetobacter baumannii Josh 230
[49] = test system: Klebsiella pneumoniae J3702
[50] = test system: Escherichia coli BB2013-30
[51] = test system: Klebsiella pneumoniae Oschner KP-1

MIC [1]: 1.5 µM (≈ 2.46 µg/mL) | MIC [2]: 4 µM (≈ 6.56 µg/mL) | MIC [3]: 7.6 µM (≈ 12.5 µg/mL) | MIC [4]: 6 µM (≈ 9.84 µg/mL) | MIC [5]: 3.6 µM (≈ 5.9 µg/mL) | MIC [6]: 4 µM (≈ 6.56 µg/mL) | MIC [7]: 3.6 µM (≈ 5.9 µg/mL) | MIC [8]: 64 µM (≈ 105 µg/mL) | MIC [9]: 21.9 µM (≈ 35.9 µg/mL) | MIC [10]: 6 µM (≈ 9.84 µg/mL) | MIC [11]: 3.6 µM (≈ 5.9 µg/mL) | MIC [12]: ≥ 40 µM | MIC [13]: 11 µM (≈ 18 µg/mL) | MIC [14]: 8 µM (≈ 13.1 µg/mL) | MIC [15]: 1.94 µM (≈ 3.18 µg/mL) | MIC [16]: 11.4 µM (≈ 18.7 µg/mL) | MIC [17]: 7.6 µM (≈ 12.5 µg/mL) | MIC [18]: 12.5 µM (≈ 20.5 µg/mL) | MIC [19]: 3.6 µM (≈ 5.9 µg/mL) | MIC [20]: 6 µM (≈ 9.84 µg/mL) | MIC [21]: > 48 µM | MIC [22]: 2.74 µM (≈ 4.49 µg/mL) | MIC [23]: 6 µM (≈ 9.84 µg/mL) | MIC [24]: 1.94 µM (≈ 3.18 µg/mL) | MIC [25]: 12 µM (≈ 19.7 µg/mL) | MIC [26]: 6 µM (≈ 9.84 µg/mL) | MIC [27]: 16 µM (≈ 26.2 µg/mL) | MIC [28]: 3 µM (≈ 4.92 µg/mL) | MIC [29]: 3.6 µM (≈ 5.9 µg/mL) | MIC [30]: 12 µM (≈ 19.7 µg/mL) | MIC [31]: 3 µM (≈ 4.92 µg/mL) | MIC [32]: 12 µM (≈ 19.7 µg/mL) | MIC [33]: ≥ 32 µM | MIC [34]: 6 µM (≈ 9.84 µg/mL)
SMILES: CC[C@H](C)[C@H](NC(=O)[C@H](CCCNC(=N)N)NC(=O)CNC(=O)[C@H](CC(C)C)NC(=O)[C@H](Cc1ccccc1)NC(=O)[C@H](CCCCN)NC(=O)[C@H](CO)NC(=O)[C@H](Cc1ccccc1)NC(=O)[C@H](Cc1c[nH]c2ccccc12)NC(=O)[C@H](CCC(N)=O)NC(=O)[C@@H](NC(=O)[C@@H](N)Cc1ccccc1)C(C)C)C(=O)N[C@@H](CC(C)C)C(N)=O [FVQWFSKFLGRIL]

MIC [35]: 19.8 µM (≈ 32 µg/mL) | MIC [36]: 19.8 µM (≈ 32 µg/mL) | MIC [37]: 19.8 µM (≈ 32 µg/mL) | MIC [38]: 19.8 µM (≈ 32 µg/mL) | MIC [39]: 19.8 µM (≈ 32 µg/mL) | MIC [40]: 4.96 µM (≈ 8 µg/mL) | MIC [41]: 19.8 µM (≈ 32 µg/mL) | MIC [42]: 19.8 µM (≈ 32 µg/mL) | MIC [43]: 2.74 µM and 5.48 µM | MIC [44]: 4.96 µM (≈ 8 µg/mL) | MIC [45]: 2.48 µM (≈ 4 µg/mL) | MIC [46]: 4.96 µM (≈ 8 µg/mL) | MIC [47]: 4.96 µM (≈ 8 µg/mL) | MIC [21]: 2.48 µM (≈ 4 µg/mL) | MIC [48]: 9.92 µM (≈ 16 µg/mL) | MIC [49]: 19.8 µM (≈ 32 µg/mL) | MIC [50]: 9.92 µM (≈ 16 µg/mL) | MIC [51]: 19.8 µM (≈ 32 µg/mL)
SMILES: CC[C@H](C)[C@H](NC(=O)CN)C(=O)N[C@@H](CCCCN)C(=O)N[C@H](C(=O)N[C@@H](CCCN=C(N)N)C(=O)N[C@@H](CCCCN)C(=O)N[C@@H](CC(C)C)C(=O)N[C@@H](Cc1ccccc1)C(=O)N[C@@H](CCCCN)C(=O)N[C@@H](CCCCN)C(=O)N[C@@H](CC(C)C)C(=O)N[C@@H](CC(C)C)C(=O)N[C@@H](CCCN=C(N)N)C(N)=O)[C@@H](C)CC [GIKIRKLFKKLLR]
